Values quoted from earlier work in PMC5306496 (British Journal of Clinical Pharmacology, 2016).
Where two headings read alike, the source gives them in different places.

Tests used:
[1] = not given; remark: listed apart in the source
[2] = CVVHDF
[3] = not given; remark: listed apart in the source
[4] = patients with SAB/RIE and CrCl > 30 ml min^−1, 6 mg kg^−1 once daily

**Q.** Which results are given for daptomycin?
**A.** CL (base model without CRRT patients, not-on-dialysis): 11.4 mL/h/kg; CL (base model without CRRT patients, not-on-dialysis, at 70 kg): 0.80 L/h; CL (base model, CAPD): 2.98 mL/h/kg; CL (base model, HD): 3.43 mL/h/kg; C min that may be associated with elevated creatine phosphokinase (CPK) ([1]; additional safety threshold): > 24300 ng/mL; safety threshold C max ([1]; healthy volunteers with normal renal function, 12 mg kg^−1 Q24 h): 197000 ng/mL; efficacy exposure reference AUC0–24h [1, 4]: 465 to 761 µg·h/mL; efficacy exposure reference C max [1, 4]: 66000 to 112000 ng/mL; C max ([2]; 4 mg kg^−1/day, n = 4, range): 24700 to 69700 ng/mL; C min ([2]; 4 mg kg^−1/day, n = 4, range): 2700 to 11900 ng/mL; C max ([2]; 5 mg kg^−1/day, n = 2, range): 34700 to 35700 ng/mL; C min ([2]; 5 mg kg^−1/day, n = 2, range): 3000 to 3700 ng/mL; C max ([2]; 6 mg kg^−1/day, n = 2, range): 20500 to 61700 ng/mL; C min ([2]; 6 mg kg^−1/day, n = 2, range): 1500 to 15900 ng/mL; clearance by CRRT as share of the total drug clearance [3]: 40–50%; PK linearity ([3]; once‐daily doses of 6–12 mg kg^−1): linear PK profile; amount of drug cleared by the kidneys ([3]; patients with normal renal function): 34–54%
